# System: 633275-114-R-J1-PDC complex spheroids, viability
# Assay: Anticancer human tumor 633275-114-R-J1-PDC patient-derived endometrial adenocarcinoma cell line growth inhibition [GQUAD]
# Settings: for IC50: curve of first compound; for viability, T/C: stronger effect = lower value
# Procedure, shortened: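 Multi-cell-type spheroids of tumor cells with HUVEC and mesenchymal stem cells, treated with drug combinations. Concentrations descend in half-log steps from near clinical Cmax, or from 10 microM where Cmax is unknown; viability read-out.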
# [1] = second compound 0.0316 µM, first compound 0.0316 µM
# [2] = second compound 0.0316 µM, first compound 0.1 µM
# [3] = second compound 0.0316 µM, first compound 0.316 µM
# [4] = second compound 0.0316 µM, first compound 1 µM
# [5] = second compound 0.0316 µM, first compound 3.16 µM
# [6] = second compound 0.0316 µM, first compound 10 µM
# [7] = second compound 0.1 µM, first compound 0.0316 µM
# [8] = second compound 0.1 µM, first compound 0.1 µM
# [9] = second compound 0.1 µM, first compound 0.316 µM
# [10] = second compound 0.1 µM, first compound 1 µM
# [11] = second compound 0.1 µM, first compound 3.16 µM
# [12] = second compound 0.1 µM, first compound 10 µM
# [13] = second compound 0.316 µM, first compound 0.0316 µM
# [14] = second compound 0.316 µM, first compound 0.1 µM
# [15] = second compound 0.316 µM, first compound 0.316 µM
# [16] = second compound 0.316 µM, first compound 1 µM
# [17] = second compound 0.316 µM, first compound 3.16 µM
# [18] = second compound 0.316 µM, first compound 10 µM
# [19] = second compound 1 µM, first compound 0.0316 µM
# [20] = second compound 1 µM, first compound 0.1 µM
# [21] = second compound 1 µM, first compound 0.316 µM
# [22] = second compound 1 µM, first compound 1 µM
# [23] = second compound 1 µM, first compound 3.16 µM
# [24] = second compound 1 µM, first compound 10 µM
# [25] = second compound 3.16 µM, first compound 0.0316 µM
# [26] = second compound 3.16 µM, first compound 0.1 µM
# [27] = second compound 3.16 µM, first compound 0.316 µM
# [28] = second compound 3.16 µM, first compound 1 µM
# [29] = second compound 3.16 µM, first compound 3.16 µM
# [30] = second compound 3.16 µM, first compound 10 µM
# [31] = second compound 10 µM, first compound 0.0316 µM
# [32] = second compound 10 µM, first compound 0.1 µM
# [33] = second compound 10 µM, first compound 0.316 µM
# [34] = second compound 10 µM, first compound 1 µM
# [35] = second compound 10 µM, first compound 3.16 µM
# [36] = second compound 10 µM, first compound 10 µM
# 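Further: spheroids exposed to the agents for seven days.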
# 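Wherever viability, T/C is given: percent of DMSO vehicle control viability which is 100%.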
compound,measurement,setting,value
C=CCn1c(=O)c2cnc(Nc3ccc(N4CCN(C)CC4)cc3)nc2n1-c1cccc(C(C)(C)O)n1 + Cc1[nH]c2ccc(F)cc2c1-c1nc2c3cccnc3c3ncccc3c2[nH]1,IC50,second compound 0.0316 µM,645 nM
same,IC50,second compound 0.1 µM,720 nM
same,IC50,second compound 0.316 µM,623 nM
same,IC50,second compound 1 µM,577 nM
same,IC50,second compound 3.16 µM,361 nM
same,IC50,second compound 10 µM,165 nM
same,"viability, T/C",[1],105%
same,"viability, T/C",[2],100%
same,"viability, T/C",[3],73.3%
same,"viability, T/C",[4],35.1%
same,"viability, T/C",[5],22.2%
same,"viability, T/C",[6],16.2%
same,"viability, T/C",[7],103%
same,"viability, T/C",[8],97.9%
same,"viability, T/C",[9],73.9%
same,"viability, T/C",[10],40.4%
same,"viability, T/C",[11],22.6%
same,"viability, T/C",[12],17.4%
same,"viability, T/C",[13],101%
same,"viability, T/C",[14],93.9%
same,"viability, T/C",[15],67.9%
same,"viability, T/C",[16],37.2%
same,"viability, T/C",[17],21.8%
same,"viability, T/C",[18],16%
same,"viability, T/C",[19],87.1%
same,"viability, T/C",[20],97.8%
same,"viability, T/C",[21],67.3%
same,"viability, T/C",[22],33.3%
same,"viability, T/C",[23],19.3%
same,"viability, T/C",[24],15.6%
same,"viability, T/C",[25],69.3%
same,"viability, T/C",[26],69.4%
same,"viability, T/C",[27],51.5%
same,"viability, T/C",[28],29.8%
same,"viability, T/C",[29],18.6%
same,"viability, T/C",[30],14.8%
same,"viability, T/C",[31],58.2%
same,"viability, T/C",[32],55%
same,"viability, T/C",[33],43.4%
same,"viability, T/C",[34],26.2%
same,"viability, T/C",[35],17.9%
same,"viability, T/C",[36],16.6%
CC(C)n1c(=O)n(C)c2cnc3cc(F)c(-c4ccc(OCCCN5CCCCC5)nc4)cc3c21 + Cc1cnc(CNC(=O)c2c(=O)c3ccc(N4CCCN(C)CC4)nc3n3c2sc2ccccc23)cn1,IC50,second compound 0.0316 µM,> 10000 nM
same,IC50,second compound 0.1 µM,< 31.6 nM
same,IC50,second compound 0.316 µM,< 31.6 nM
same,IC50,second compound 1 µM,< 31.6 nM
same,IC50,second compound 3.16 µM,< 31.6 nM
same,IC50,second compound 10 µM,< 31.6 nM
same,"viability, T/C",[1],58%
same,"viability, T/C",[2],58.5%
same,"viability, T/C",[3],52.9%
same,"viability, T/C",[4],52.9%
same,"viability, T/C",[5],56.4%
same,"viability, T/C",[6],54%
same,"viability, T/C",[7],44.2%
same,"viability, T/C",[8],45.1%
same,"viability, T/C",[9],42.9%
same,"viability, T/C",[10],42.2%
same,"viability, T/C",[11],49.5%
same,"viability, T/C",[12],47.2%
same,"viability, T/C",[13],46.6%
same,"viability, T/C",[14],42.1%
same,"viability, T/C",[15],40.9%
same,"viability, T/C",[16],41.6%
same,"viability, T/C",[17],46.4%
same,"viability, T/C",[18],39.4%
same,"viability, T/C",[19],42.7%
same,"viability, T/C",[20],37.1%
same,"viability, T/C",[21],37.1%
same,"viability, T/C",[22],43.5%
same,"viability, T/C",[23],39.2%
same,"viability, T/C",[24],33.6%
same,"viability, T/C",[25],32.2%
same,"viability, T/C",[26],34.5%
same,"viability, T/C",[27],33.8%
same,"viability, T/C",[28],32.3%
same,"viability, T/C",[29],33.9%
same,"viability, T/C",[30],25.2%
same,"viability, T/C",[31],31.3%
same,"viability, T/C",[32],32%
same,"viability, T/C",[33],32.2%
same,"viability, T/C",[34],29.1%
same,"viability, T/C",[35],31.4%
same,"viability, T/C",[36],9.52%
CC1COCCN1c1cc(-c2ccnn2C)c2ccnc(-c3ccn[nH]3)c2n1 (stereo unspecified) + Cc1cnc(CNC(=O)c2c(=O)c3ccc(N4CCCN(C)CC4)nc3n3c2sc2ccccc23)cn1,IC50,second compound 0.0316 µM,< 31.6 nM
same,IC50,second compound 0.1 µM,< 31.6 nM
same,IC50,second compound 0.316 µM,< 31.6 nM
same,IC50,second compound 1 µM,< 31.6 nM
same,IC50,second compound 3.16 µM,< 31.6 nM
same,IC50,second compound 10 µM,< 31.6 nM
same,"viability, T/C",[1],43.9%
same,"viability, T/C",[2],32.6%
same,"viability, T/C",[3],29.8%
same,"viability, T/C",[4],25.8%
same,"viability, T/C",[5],18.7%
same,"viability, T/C",[6],14.7%
same,"viability, T/C",[7],42.2%
same,"viability, T/C",[8],37.7%
same,"viability, T/C",[9],30.2%
same,"viability, T/C",[10],22.6%
same,"viability, T/C",[11],17.3%
same,"viability, T/C",[12],14.9%
same,"viability, T/C",[13],38.8%
same,"viability, T/C",[14],38.2%
same,"viability, T/C",[15],30.6%
same,"viability, T/C",[16],24%
same,"viability, T/C",[17],17.5%
same,"viability, T/C",[18],10.9%
same,"viability, T/C",[19],36.9%
same,"viability, T/C",[20],36.6%
same,"viability, T/C",[21],29.1%
same,"viability, T/C",[22],22.2%
same,"viability, T/C",[23],15.4%
same,"viability, T/C",[24],11.1%
same,"viability, T/C",[25],33.6%
same,"viability, T/C",[26],29.1%
same,"viability, T/C",[27],25%
same,"viability, T/C",[28],20.8%
same,"viability, T/C",[29],13.3%
same,"viability, T/C",[30],9.84%
same,"viability, T/C",[31],28.5%
same,"viability, T/C",[32],24.7%
same,"viability, T/C",[33],23.4%
same,"viability, T/C",[34],18.4%
same,"viability, T/C",[35],14.4%
same,"viability, T/C",[36],8.93%
